Measurements from US8541407B2 (ArQule, Inc., priority 2010, dated 2013).
pIC50: −log10 of the molar value. Counter-ions that a name gives are not always drawn.

Molecular target: AKT1 (Homo sapiens (Human), UniProt P31749)
Assay: Inactive Akt Alpha Screen Assay
Settings: non *labeled: Akt Alpha Screen assay; read-out: AKT1 biochemical assay, IC50
Procedure: AKT1 activity was assayed using the GSK3-derived biotinylated peptide substrate, crosstide (biotin-[…]), and AlphaScreen™ (Amplified Luminescent Proximity Homogeneous Assay) technology. AKT1 activation was achieved by the addition of the activating kinases PDK1 and MAPKAPK2, lipid vesicles, and ATP. The extent of peptide phosphorylation was determined using a phospho-AKT substrate antibody and acceptor beads conjugated to Protein A and donor beads conjugated to streptavidin that bind to the biotin on the peptide. Excitation of the donor beads converted ambient oxygen to excited singlet oxygen which, when in close proximity to acceptor beads, reacted with acceptor beads resulting in signal amplification. […] The plates were incubated for 30 minutes at room temperature, and then stopped in the dark by the addition of 10 μL stop/detection mixture prepared in assay buffer containing EDTA, AlphaScreen™ Streptavidin Donor and Protein A Acceptor beads, and phospho-AKT substrate antibody for final concentrations of 10 mM EDTA, 500 ng/well of both AlphaScreen™ Streptavidin Donor beads and Protein A Acceptor beads, and phospho-AKT substrate antibody at a final dilution of 1:350. Assay plates were incubated for 90 minutes at room temperature in the dark, and the plates were read on a Perkin Elmer Envision Multilabel plate reader (excitation wavelength: […], emission wavelength: 570 nm). […] Envision Instrument Settings: • Instrument: Perkin Elmer Envision • Plate: 96 well • Program Name: • Excitation: Ex Top • Mirror: General Dual—Slot 2 • Excitation Filter: CFP430 Ex.

AKT1, sequence (P31749 whole entry): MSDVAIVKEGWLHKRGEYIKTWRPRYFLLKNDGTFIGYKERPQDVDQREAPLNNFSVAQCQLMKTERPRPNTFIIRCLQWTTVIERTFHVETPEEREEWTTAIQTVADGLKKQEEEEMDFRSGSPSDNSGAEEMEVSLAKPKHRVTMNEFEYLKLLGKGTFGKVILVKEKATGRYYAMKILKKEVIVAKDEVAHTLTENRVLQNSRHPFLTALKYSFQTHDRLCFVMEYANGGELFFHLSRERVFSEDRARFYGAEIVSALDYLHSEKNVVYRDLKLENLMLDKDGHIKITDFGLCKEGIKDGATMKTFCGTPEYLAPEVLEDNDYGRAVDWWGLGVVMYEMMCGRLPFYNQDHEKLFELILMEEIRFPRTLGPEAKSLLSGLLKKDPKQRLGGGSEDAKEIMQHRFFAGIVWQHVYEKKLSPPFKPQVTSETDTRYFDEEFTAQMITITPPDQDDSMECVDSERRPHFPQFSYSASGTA

SMILES	pIC50
O=C(C1CCCC1)N1CCN(Cc2ccc(-c3nnc4n3-c3cccnc3Nc3ccccc3-4)cc2)CC1 [Example 133, (4-(4-(9H-benzo[f]pyrido[2,3-b][1,2,4]triazolo[4,3-d][1,4]diazepin-3-yl)benzyl)piperazin-1-yl)(cyclopentyl)methanone]	5.47
O=S(=O)(Nc1ccc(-c2nnc3n2-c2cccnc2Nc2ccccc2-3)cc1)c1ccccc1 [Example 106, N-(4-(9H-benzo[f]pyrido[2,3-b][1,2,4]triazolo[4,3-d][1,4]diazepin-3-yl)phenyl)benzenesulfonamide]	5.18
c1ccc(CCN2CCN(Cc3ccc(-c4nnc5n4-c4cccnc4Nc4ccccc4-5)cc3)CC2)cc1 [Example 94, 3-(4-((4-phenethylpiperazin-1-yl)methyl)phenyl)-9H-benzo[f]pyrido[2,3-b][1,2,4]triazolo[4,3-d][1,4]diazepine]	5.24
Nc1cccc(-c2nnc3n2-c2cccnc2Nc2ccccc2-3)c1 [Example 18, hydrochloride]	5.09
Nc1ccc(-c2nnc3n2-c2ccccc2Nc2ccccc2-3)cc1 [Example 22, 4-(9H-dibenzo[b,f][1,2,4]triazolo[4,3-d][1,4]diazepin-3-yl)aniline]	5.74
CC(C)(C)c1ccc(-c2nnc3n2-c2cccnc2Nc2ccccc2-3)cc1 [Example 7, 3-(4-(tert-butyl)phenyl)-9H-benzo[f]pyrido[2,3-b][1,2,4]triazolo[4,3-d][1,4]diazepine]	5.33
O=C1CCCN1CCCNCc1ccc(-c2nnc3n2-c2cccnc2Nc2ccccc2-3)cc1 [Example 78, 1-(3-((4-(9H-benzo[f]pyrido[2,3-b][1,2,4]triazolo[4,3-d][1,4]diazepin-3-yl)benzyl)amino)propyl)pyrrolidin-2-one]	5.36
Fc1ccc(-c2nnc3n2-c2cccnc2Nc2ccccc2-3)c(F)c1 [Example 17]	5.14
OCc1ccc(-c2nnc3n2-c2cccnc2Nc2ccc(Br)cc2-3)cc1 [Example 225, (4-(12-bromo-9H-benzo[f]pyrido[2,3-b][1,2,4]triazolo[4,3-d][1,4]diazepin-3-yl)phenyl)methanol]	5.28
CC(C)(C)OC(=O)NC1CCN(Cc2ccc(-c3nnc4n3-c3cccnc3Nc3ccccc3-4)cc2)CC1 [Example 201, tert-butyl (1-(4-(9H-benzo[f]pyrido[2,3-b][1,2,4]triazolo[4,3-d][1,4]diazepin-3-yl)benzyl)piperidin-4-yl)carbamate]	5.72
O=C(c1ccccn1)N1CCN(Cc2ccc(-c3nnc4n3-c3cccnc3Nc3ccccc3-4)cc2)CC1 [Example 161, (4-(4-(9H-benzo[f]pyrido[2,3-b][1,2,4]triazolo[4,3-d][1,4]diazepin-3-yl)benzyl)piperazin-1-yl)(pyridin-2-yl)methanone]	5.38
COc1ccc(CCNC(=O)NC2CCN(Cc3ccc(-c4nnc5n4-c4cccnc4Nc4ccccc4-5)cc3)CC2)cc1OC [Example 169, 1-(1-(4-(9H-benzo[f]pyrido[2,3-b][1,2,4]triazolo[4,3-d][1,4]diazepin-3-yl)benzyl)piperidin-4-yl)-3-(3,4-dimethoxyphenethyl)urea]	5.22
FC(F)(F)c1ccc(-c2nnc3n2-c2cccnc2Nc2ccccc2-3)cc1 [Example 8, 3-(4-(trifluoromethyl)phenyl)-9H-benzo[f]pyrido[2,3-b][1,2,4]triazolo[4,3-d][1,4]diazepine]	4.52
Fc1ccc(-c2nnc3n2-c2cccnc2Nc2ccccc2-3)cc1 [hydrochloride]	4.64

Stronger by pIC50, values ahead:

pIC50	SMILES
5.96	O=C(NCc1ccc(-c2nnc3n2-c2cccnc2Nc2ccccc2-3)cc1)c1ccco1 [Example 97, N-(4-(9H-benzo[f]pyrido[2,3-b][1,2,4]triazolo[4,3-d][1,4]diazepin-3-yl)benzyl)furan-2-carboxamide]
6.21	O=C(NC1(c2ccc(-c3nnc4n3-c3cccnc3Nc3ccccc3-4)cc2)CCC1)c1ccc(F)cc1 [Example 200, N-(1-(4-(9H-benzo[f]pyrido[2,3-b][1,2,4]triazolo[4,3-d][1,4]diazepin-3-yl)phenyl)cyclobutyl)-4-fluorobenzamide]
6.85	CC(=O)Nc1ccc(S(=O)(=O)NCc2ccc(-c3nnc4n3-c3cccnc3Nc3ccccc3-4)cc2)cc1 [Example 120, N-(4-(N-(4-(9H-benzo[f]pyrido[2,3-b][1,2,4]triazolo[4,3-d][1,4]diazepin-3-yl)benzyl)sulfamoyl)phenyl) acetamide]
6.15	CC(C)CC(=O)Nc1ccc(-c2nnc3n2-c2cccnc2Nc2ccccc2-3)cc1 [Example 33, N-(4-(9H-benzo[f]pyrido[2,3-b][1,2,4]triazolo[4,3-d][1,4]diazepin-3-yl)phenyl)-3-methylbutanamide]
6.85	N#Cc1ccc(C(=O)Nc2ccc(-c3nnc4n3-c3cccnc3Nc3ccccc3-4)cc2)cc1 [Example 38, N-(4-(9H-benzo[f]pyrido[2,3-b][1,2,4]triazolo[4,3-d][1,4]diazepin-3-yl)phenyl)-4-cyanobenzamide]
6.38	CC(C)(C)C(=O)Nc1ccc(-c2nnc3n2-c2cccnc2Nc2ccccc2-3)cc1 [Example 43, N-(4-(9H-benzo[f]pyrido[2,3-b][1,2,4]triazolo[4,3-d][1,4]diazepin-3-yl)phenyl)pivalamide]
6.15	O=C(Nc1ccc(-c2nnc3n2-c2cccnc2Nc2ccccc2-3)cc1)C1CCC1 [Example 57, N-(4-(9H-benzo[f]pyrido[2,3-b][1,2,4]triazolo[4,3-d][1,4]diazepin-3-yl)phenyl)cyclobutanecarboxamide]
6.00	N#Cc1ccc(C(=O)N2CCN(Cc3ccc(-c4nnc5n4-c4cccnc4Nc4ccccc4-5)cc3)CC2)cc1 [Example 139, 4-(4-(4-(9H-benzo[f]pyrido[2,3-b][1,2,4]triazolo[4,3-d][1,4]diazepin-3-yl)benzyl)piperazine-1-carbonyl)benzonitrile]
6.14	CCCC(=O)Nc1ccc(-c2nnc3n2-c2cccnc2Nc2ccccc2-3)cc1 [Example 32, N-(4-(9H-benzo[f]pyrido[2,3-b][1,2,4]triazolo[4,3-d][1,4]diazepin-3-yl)phenyl)butyramide]
6.35	O=C(c1ccccc1F)N1CCN(Cc2ccc(-c3nnc4n3-c3cccnc3Nc3ccccc3-4)cc2)CC1 [Example 141, (4-(4-(9H-benzo[f]pyrido[2,3-b][1,2,4]triazolo[4,3-d][1,4]diazepin-3-yl)benzyl)piperazin-1-yl)(2-fluorophenyl)methanone]
6.04	c1ccc(OC2CCCN(Cc3ccc(-c4nnc5n4-c4cccnc4Nc4ccccc4-5)cc3)C2)cc1 (stereo not drawn) [Example 189, 3-(4-((3-phenoxypiperidin-1-yl)methyl)phenyl)-9H-benzo[f]pyrido[2,3-b][1,2,4]triazolo[4,3-d][1,4]diazepine]
5.92	O=C(NCc1ccc(-c2nnc3n2-c2cccnc2Nc2ccccc2-3)cc1)Nc1ccc(F)cc1 [Example 124, 1-(4-(9H-benzo[f]pyrido[2,3-b][1,2,4]triazolo[4,3-d][1,4]diazepin-3-yl)benzyl)-3-(4-fluorophenyl)urea]
6.16	NCc1ccc(-c2nnc3n2-c2cccnc2Nc2ccccc2-3)cc1 [Example 62, (4-(9H-benzo[f]pyrido[2,3-b][1,2,4]triazolo[4,3-d][1,4]diazepin-3-yl)phenyl)methanamine]
